Test results: publication PMC5841205, “Pharmacological targeting of apelin impairs glioblastoma growth” (Brain, 2017)

Assays:
GSC#1 [1] = test: Tumoursphere formation, tideglusib; format: cell-based, human; details: GSC#1, tideglusib 2.5 μM with apelin 1 μM
Protocol: (§1) To test the tumoursphere formation, GSCs (100 cells/µl) were plated in triplicate in indicated media as previously described ([Harford-Wright et al., 2016]). Cells were manually dissociated each day and a single cell suspension maintained until Day 5. Tumourspheres were counted in five random fields of view, and the mean from the triplicate of each condition calculated from three independent experiments.
(§2) Figure 4 Pharmacological inhibition of APLNR impairs the effects of the endothelial secretome on GSCs by inhibition of GSK3β signalling. (A) Molecular structure and primary sequence of the competitive APLNR antagonist MM54. […] (C) The percentage of calcium flux inhibition following MM54 treatment (0.4–10 μM) in the G-protein coupled receptor hits. […] (J) Reverse protein phase array (RPPA) from the TCGA database were analysed in low and high APLNR expressing glioblastoma samples. *P < 0.05; **P < 0.01 compared to the low APLNR condition. […] (N) GSC #1 received sic (control) or GSK3B targeting siRNA (siGSK3B) and tumoursphere per field of view was quantified in MF supplemented with purified apelin (APLN, 1 μM). *P < 0.05 compared to the sic MF condition.

GSC #1 = test: Limiting dilution assay, tideglusib; format: cell-based, human; details: GSC#1, tideglusib 2.5 μM with apelin 1 μM
Protocol: as §2, with “hits. (D) Tumoursphere per field of view (fov) in response to MM54 (0–4 μM) treatment in GSC#1 maintained in human brain endothelial cell-conditioned medium (EC-CM) and apelin-supplemented mitogen-free MF media (APLN, 1 μM) for 5 days. *P < 0.05 compared to EC-CM DMSO control, ^#P < 0.05 compared to apelin DMSO control. […] (F) Stem cell frequency in apelin supplemented media in response to MM54 (2 μM) in GSCs #1, #4, #9 and #12. *P < 0.05 compared to the vehicle condition. (G) Flow cytometry analysis of the percentage of ALDH positive and negative GSC #1 in response to 2, 10 or 20 μM of MM54 at Day 5.” for “hits.”

[2] = test system: GSCs (glioblastoma patient-derived cells with stem-like properties); test: Tumoursphere formation, APLNR antagonists and TMZ; format: cell-based, human; details: GSC#1, TMZ 10–100 μM, Day 5
Protocol: as §1
Figure 4 Pharmacological inhibition of APLNR impairs the effects of the endothelial secretome on GSCs by inhibition of GSK3β signalling. (A) Molecular structure and primary sequence of the competitive APLNR antagonist MM54. […] (J) Reverse protein phase array (RPPA) from the TCGA database were analysed in low and high APLNR expressing glioblastoma samples. *P < 0.05; **P < 0.01 compared to the low APLNR condition. […] (N) GSC #1 received sic (control) or GSK3B targeting siRNA (siGSK3B) and tumoursphere per field of view was quantified in MF supplemented with purified apelin (APLN, 1 μM). *P < 0.05 compared to the sic MF condition.
Figure 5 Pharmacological inhibition of APLNR by MM54 impairs the in vitro expansion of temozolomide-resistant GSCs. (A) Cell viability following treatment with DMSO, MM54 (2, 20 and 100 μM) or temozolomide (TMZ, 50 μM) was measured using UptiBlue in different cell types for 3 days. […]

GSC#1 ALDH activity = test: ALDH activity (ALDEFLUOR flow cytometry); format: cell-based, human
Protocol: Analysis of aldehyde dehydrogenase (ALDH) activity was performed using the ALDEFLUOR™ assay kit (Stem Cell Technologies). Briefly, cells were incubated with ALDEFLUOR alone or in combination with an ALDH activity inhibitor (DAEB) at 37°C for 45 min. This flow cytometry-based staining allows monitoring ALDH activity in stem, progenitor and cancer precursor cells. The ALDH activity is considered positive in comparison to cells incubated with DEAB reagent.
as §2, with “hits. (D) Tumoursphere per field of view (fov) in response to MM54 (0–4 μM) treatment in GSC#1 maintained in human brain endothelial cell-conditioned medium (EC-CM) and apelin-supplemented mitogen-free MF media (APLN, 1 μM) for 5 days. *P < 0.05 compared to EC-CM DMSO control, ^#P < 0.05 compared to apelin DMSO control. […] (F) Stem cell frequency in apelin supplemented media in response to MM54 (2 μM) in GSCs #1, #4, #9 and #12. *P < 0.05 compared to the vehicle condition. (G) Flow cytometry analysis of the percentage of ALDH positive and negative GSC #1 in response to 2, 10 or 20 μM of MM54 at Day 5. ALDH activity corresponds to the percentage of cells that contains ALDH activity (positive) or not (negative), normalized to the vehicle condition. *P < 0.05; ***P < 0.001 compared to the vehicle condition.” for “hits.”
(§3) Figure 5 Pharmacological inhibition of APLNR by MM54 impairs the in vitro expansion of temozolomide-resistant GSCs. (A) Cell viability following treatment with DMSO, MM54 (2, 20 and 100 μM) or temozolomide (TMZ, 50 μM) was measured using UptiBlue in different cell types for 3 days. […] (B and C) Cell viability following treatment with DMSO or TMZ (100 μM) was measured using UptiBlue in GSCs #1, #4, #9, and #12 for 3 days. […] (D) GSC#1 viability was assessed following combined treatment with MM54 (0.2–20 μM) and TMZ (constant ratios TMZ:MM54 2.5:1, 5:1, and 10:1) in NS and human brain endothelial cell-conditioned medium (EC-CM) conditions. (E and F) Tumoursphere per field of view (fov) and ALDH activity were assessed in response to MM54 (0.2–100 μM) or TMZ (10–100 μM) treatment at Day 5. […]

[3] = test system: U87 glioblastoma cell line; test: Cell viability (UptiBlue), U87; format: cell-based, human
Protocol: (§4) Cell viability in response to MM54 was tested using the UptiBlue reagent (Interchim), a fluorometric/colorimetric growth indicator based on the detection of metabolic activity. Briefly, cells were seeded at a density of 2 × 10^3 per well, UptiBlue added at a concentration of 10% v/v and cells maintained at 37°C 5% CO2 until analysis. Absorbance was measured at Day 5 following treatment at 570 and 600 nm on a FLUOStar OPTIMA (BMG Labtech) plate reader, and the percentage of cell viability calculated according to the manufacturer’s instructions.
as §3

[4] = test system: LN229 glioblastoma cell line; test: Cell viability (UptiBlue), LN229; format: cell-based, human; details: TMZ
Protocol: as §4, §3

GSCs #1, #4, #9, and #12 = test: Cell viability (UptiBlue), GSCs; format: cell-based, human; details: TMZ 100 μM, GSCs #1, #4 and #9, serum-containing medium, 3 days
Protocol: as §4, §3

[5] = test system: GSCs (glioblastoma patient-derived cells with stem-like properties); test: Tumoursphere formation, apelin peptides; format: cell-based, human; details: for number of tumourspheres: 1 μM apelin peptide in mitogen-free medium (MF), GSCs #1, #9, #12 and #13, vs MF, 5 days
Source text: Glioblastoma patient-derived cells with stem-like properties (GSCs) were isolated as previously described ([Treps et al., 2016]). Briefly, tumours were dissociated using the MACsDissociator (Miltenyi) and each GSC characterized for their self-renewal capabilities, cell surface antigens, expression of stemness markers, their ability to differentiate, and to initiate tumour formation (Supplementary Table 1). GSCs 1–16 were maintained as spheres in NS medium (DMEM-F12, with N2, G5 and B27 supplements, GlutaMAX™ and antibiotics, Life Technologies). To induce differentiation in GSCs, the three supplements were omitted and 10% foetal bovine serum added to the media.
as §1
(§5) (C) Confocal analysis of NESTIN (green), SOX2 (red) and nuclei (DAPI, blue) in GSC#1 grown in NS, MF, human brain endothelial cell-conditioned medium (EC-CM) or MF+APLN (1 μM). Scale bars = 20 µm. (D) Linear regression plot of in vitro limiting dilution assay (LDA) for GSC#1 in NS, EC-CM, MF, and MF+APLN (1 μM). Data are representative of n = 2. […] (F) Stem cell frequency in GSCs #1, #2, #4, #9 and #12 in response to MF and APLN conditions. […] (H) EC received non-silencing RNA (sic) or siRNA targeting APLN (siAPLN) and APLN knockdown efficiency assessed by RT-PCR and ELISA. […] (K) FACS analysis of the proliferation marker Ki67 in GSCs #4 and #9 in NS and MF+APLN conditions. All panels are representative of n = 3, unless otherwise specified.

GSC#1 [6] = details: GSC#1, synthetic apelin 1 μM added to MF
Protocol: as §5

GSCs #4 and #9 = details: GSCs #4 and #9, apelin-supplemented MF
Protocol: as §5

[7] = test system: GSCs (glioblastoma patient-derived cells with stem-like properties)
Protocol: as §5

endothelial cells = details: ref Kleinz and Davenport, 2005; cited from earlier work
Source text: Moreover, apelin has been implicated in physiological and pathological angiogenesis ([Kaelin et al., 2007]). […] In keeping with this, a recent study proposed apelin as a marker for monitoring tumour vessel normalization and response to anti-angiogenic therapy ([Zhang et al., 2016]; [Zuurbier et al., 2017]).

## O=c1sn(-c2cccc3ccccc23)c(=O)n1Cc1ccccc1 [tideglusib]
GSC#1 [1]
  effect on apelin-mediated increase in tumourspheres: apelin was less potent at increasing tumourspheres and self-renewal
GSC #1
  effect on apelin-mediated increase in self-renewal (LDA): apelin was less potent at increasing tumourspheres and self-renewal

## Cn1nnc2c(C(N)=O)ncn2c1=O [TMZ, Temozolomide]
[2]
  concentrations needed for tumoursphere impairment comparable to MM54: required much higher concentrations to achieve comparable results
GSC#1 ALDH activity; GSC#1, TMZ 10–100 μM, Day 5
  concentrations needed for ALDH impairment comparable to MM54: required much higher concentrations to achieve comparable results
GSC#1 ALDH activity; TMZ alone
  activity of the stem marker ALDH, TMZ alone: does not alter the activity of the stem marker ALDH
GSC#1 ALDH activity; TMZ with MM54 suboptimal dose <2 μM, MM54:TMZ 1:2.5, 1:5, 1:10
  potentiation of MM54 effect on ALDH activity: significantly potentiates the effects of MM54
GSC#1 ALDH activity; TMZ with suboptimal dose of MM54
  percentage of ALDH-positive cells, TMZ combined with suboptimal dose of MM54: profound alterations in the percentage of ALDH-positive cells
[3]; TMZ
  viability, U87: significantly reduced the viability
[3]; TMZ 100 μM, serum-containing medium, 3 days
  viability, U87 grown as adherent differentiated cells: reduces the viability
[4]
  viability, LN229: significantly reduced the viability
GSCs #1, #4, #9, and #12
  viability, GSCs grown as adherent differentiated cells: reduces the viability

## pyr-apelin-13
[5]; n = 3
  number of tumourspheres: increased the number of tumourspheres compared to mitogen-free media

## apelin-13
[5]; n = 3
  number of tumourspheres: increased the number of tumourspheres compared to mitogen-free media
[5]; 1 μM, compared among apelin-13, pyr-apelin-13 and apelin-36
  potency at sustaining GSCs (tumourspheres): most potent at sustaining GSCs
[5]; GSC#1, increasing apelin-13 concentrations in MF, n = 3
  tumourspheres, increasing concentrations: potent and sustained increase in tumourspheres from the lowest concentration
[5]; GSC#1 in siAPLN EC-CM plus apelin 1 μM, tumoursphere and LDA
  stem properties of GSCs in APLN-depleted EC-CM: restored this effect
[5]; panel of 16 patient-derived GSCs, apelin-supplemented MF vs MF, n = 3
  ability of GSCs to expand as tumourspheres: significantly increased the ability of GSCs to expand as tumourspheres
GSC#1 [6]
  rescue of NESTIN and SOX2 expression and ability to form tumourspheres: rescued by the addition of synthetic apelin
GSCs #4 and #9
  proliferation (Ki67) of GSCs: did not observe any obvious effect
[7]; GSC#1, apelin 1 μM in MF vs MF, two weeks, n = 2
  frequency of colony-forming cells: increase in the frequency of colony-forming cells
[7]; GSCs #1, #2, #4, #9 and #12, apelin vs MF
  frequency of stem cells: increased the frequency of stem cells
Endothelial cells
  endothelial cell proliferation and vessel sprouting: induces proliferation and vessel sprouting in endothelial cells
